# Read-outs that look alike come from different tables or passages of the source.
# What was measured:
# [1] = target: T1, anthranilate synthase encoded by trpE476 (Escherichia coli, UniProt P00895); experiment: Feedback inhibition of anthranilate synthase by tryptophan, trpE476 enzyme; type: biochemical
# T1 construct: plasmid pMU3019 in trpE-deleted JP6768 (trpDCBA functional), also trpE476DCBA on pMU91
# Excerpt: Plasmid pMU3018 (FIG. 6) carries the tip promoter, the trpE gene and part of the trpD gene on a 2.9 kb SmaI HindIII fragment. pMU3018 is derived from pMU578, which is a single-copy Tp^R plasmid carrying a galK'-lac'ZA fusion, similar to the promoter cloning vector pMU575 (Andrews, A. E., B. Lawley, and A. J. Pittard. (1991). J. Bacteriol. 173: 5068-5078), but with a SmaI EcoRI BglII linker replacing the SmaI site, and the DraI fragments removed, deleting lacY and lacA. If pMU3018 DNA is digested with these two enzymes and the fragments electrophoresed in a low melting point agarose gel it is a simple matter to separate and purify the trpEtrpD' 2.9 kb fragment and the larger 13 kb vector fragment. This 2.9 kb fragment was mutagenised with 50 mM nitrous acid for 60 minutes following the method of Ray et al. (Ray, J. M., C. Yanofsky and R. Bauerle. (1988). J. Bacteriol. 170: 5500-5506), except that spermine (1 mM) was added to the mutagenesis mixture. After mutagenesis, the fragment was religated with the larger 13 kb fragment and the products of ligation were transformed into strain JP6768, an E. coli strain which is trpR^-, and in which the trpE gene has been deleted from the chromosome but trpDCB and A are fully functional (ΔtrpLE1413 (Miozzari, G. F. and C. Yanofsky. (1978). J. Bacteriol. 133: 1457-1466). Approximately 2,000 transformants were selected on Luria agar containing trimethoprim. These were screened for growth on minimal medium supplemented with the tryptophan analogue 5-fluorotryptophan at 15 mM. Clones which grew were potential feedback-resistant mutants altered in the enzyme anthranilate synthase. The anthranilate synthase activity of each of these clones was assayed in the presence of very high levels of tryptophan (13.5 g/l) using the assay described in Cho, K-O. and C. Yanofsky. (1988). J. Mol. Biol. 204: 41-50. […] The mutant allele present in this strain was called trpE483. […] FIG. 4 compares the feedback sensitivity of anthranilate synthase from a strain with the wild-type allele (JP6768/pMU3018) and strains with the trpE483 allele (JP6768/pMU3025) and with the trpE476 allele (JP6768/pMU3019).
# The effect of temperature of incubation on both stability and productivity for an overproducing strain carrying the trpS378 allele and a plasmid carrying the trp operon encoding a feedback-resistant anthranilate synthase, is shown in FIG. 2. Low temperatures favour high stability and low productivity, whilst higher temperatures favour productivity at the expense of stability. […] The data in FIG. 2 is for JP6015/pMU91 and the primary selection is for Ser^+. JP6015 is derived from JP4153 (see Example 4) by introduction of sac^+ by transduction,and introduction of serA^- by cotransduction with a closely linked Tn10 transposon, and subsequent selection of a tetracycline sensitive derivative. pMU91 is a plasmid derived from pSC101 (Cohen, S. N. and A. C. Chang (1977). J. Bacteriol. 132: 734-737), carrying Tc^R, trpE476DCBA and serA^+ (see FIG. 9). The trpE476DCBA alelle was isolated using the specialized transducing phage .PHI.80pt190h (Herschfield, V. et al (1974). Proc. Natl. Acad. Sci. USA 71:3455-3459). A trpE^- strain carrying .PHI.80pt190h was plated on minimal medium containing 1 mM 5-methyltryptophan (5MT). A pool of cells was induced by ultraviolet light to produce a lysate which was used in a subsequent transduction, selecting Trp^+ 5MTR transductants. […]
# [2] = target: anthranilate synthase encoded by trpE382 (Escherichia coli, UniProt P00895); experiment: Feedback inhibition of anthranilate synthase by tryptophan, trpE382 enzyme; type: biochemical
# [3] = target: anthranilate synthase encoded by trpE483 (Escherichia coli, UniProt P00895); experiment: Feedback inhibition of anthranilate synthase by tryptophan, trpE483 enzyme; type: biochemical; settings: tryptophan 13.5 g/l
# Excerpt: Plasmid pMU3018 (FIG. 6) carries the tip promoter, the trpE gene and part of the trpD gene on a 2.9 kb SmaI HindIII fragment. pMU3018 is derived from pMU578, which is a single-copy Tp^R plasmid carrying a galK'-lac'ZA fusion, similar to the promoter cloning vector pMU575 (Andrews, A. E., B. Lawley, and A. J. Pittard. (1991). J. Bacteriol. 173: 5068-5078), but with a SmaI EcoRI BglII linker replacing the SmaI site, and the DraI fragments removed, deleting lacY and lacA. If pMU3018 DNA is digested with these two enzymes and the fragments electrophoresed in a low melting point agarose gel it is a simple matter to separate and purify the trpEtrpD' 2.9 kb fragment and the larger 13 kb vector fragment. This 2.9 kb fragment was mutagenised with 50 mM nitrous acid for 60 minutes following the method of Ray et al. (Ray, J. M., C. Yanofsky and R. Bauerle. (1988). J. Bacteriol. 170: 5500-5506), except that spermine (1 mM) was added to the mutagenesis mixture. […]
# [4] = test system: tryptophan auxotroph unable to actively transport tryptophan (JP7847); experiment: Growth response to tryptophan, trpS+ auxotroph defective in active transport; type: cell-based, Escherichia coli; settings: minimal medium
# Excerpt: (§1) JP6006 is derived from JP4153 by introduction of ΔtrpLE1413 by P1 transduction using TN10 as a linked marker and isolation of a tetracycline-sensitive derivative, followed by introduction of sac^+ by P1 transduction, using a P1 lysate grown on sac^+ strain GA122 (Alaeddinoglu, N. G. and H. P. Charles. (1979). J. Gen. Microbiol. 110: 47-59). JP4153 is aroF363 aroG103(FBR) aroH371(FBR) trpE382(FBR) trpR363 tyrR366 trpS378 aroP579 mtr-24 tna-1. JP7847 is a trpS^+ derivative of JP6006, isolated by P1 transduction.
# (§2) Cells were grown in minimal medium supplemented with different levels of tryptophan at 30° C. Growth was measured by optical density with a Klett colorimeter and doubling times were calculated from the exponential phase of each growth curve.
# [5] = test system: transport negative tryptophan auxotroph carrying trpS378 (JP6006); experiment: Growth response to tryptophan, trpS378 auxotroph defective in active transport; type: cell-based, Escherichia coli
# Excerpt: as §1, §2
# [6] = test system: tryptophan auxotrophs with wild-type trpS allele able to actively transport tryptophan; experiment: Growth response to tryptophan, auxotrophs with wild-type trpS and active transport; type: cell-based, Escherichia coli; settings: minimal medium
# [7] = test system: anthranilate synthase (wild-type strains); settings: read-out: tryptophan concentration giving about 50% inhibition of anthranilate synthase activity; cited from earlier work
# [8] = test system: anthranilate synthase of feedback-resistant mutants; settings: cited from earlier work
smiles,measurement,setting,value
"N[C@@H](Cc1c[nH]c2ccccc12)C(=O)O [tryptophan, L-tryptophan]",inhibition of activity,[1]; 1 mM tryptophan,less than 10%
same,"anthranilate synthase activity, % of full activity",[1]; 10 mM L-tryptophan,70%
same,resistance to feedback inhibition,[1]; tryptophan 1 g/l,good resistance
same,inhibition of anthranilate synthase,[1]; tryptophan 12 g/l (60 mM),60-80%
same,inhibition of activity,[1]; tryptophan 13.5 g/l,more than 60%
same,inhibition of activity,[2]; 1 mM tryptophan,less than 10%
same,inhibition of anthranilate synthase,[2]; tryptophan 12 g/l (60 mM),60-80%
same,inhibition of activity,[3],less than 10%
same,tryptophan level required for optimal growth,[4],~ 10^-3 M
same,tryptophan level at which the strain grows with a normal doubling time,[4]; FIG. 1,≥ 1 mM
same,tryptophan required for good growth,"[5]; 30° C., FIG. 1",at least 5 mM
same,tryptophan concentration before maximum growth rate is achieved,[5]; minimal medium,5 mM
same,tryptophan level supporting growth at a fast rate,[6],50 µM
same,IC50,[7],~0.02 mM
same,IC50,"[8]; mutants conferring higher feedback-resistance (Aiba et al. 1982), read-out: 50% inhibition values",> 20 mM
same,IC50,"[8]; mutants typically chosen for tryptophan overproduction (Aiba et al., CA 1182409), read-out: tryptophan concentration at which the 50% inhibition figure occurred",~13 mM

# Reference: patent US5756345A, “Production of tryptophan by the bacterium Escherichia coli” (Degussa Aktiengesellschaft, priority 1995, dated 1998)
